Experimental data: patent publication US5391540A, “Substituted pyridine compounds” (Rohm and Haas Company, priority 1993, dated 1995)

Experiments:
Assay type in all cases: in vivo
[1] = system: Barnyardgrass; experiment: Pre-emergent herbicidal activity (Table A); conditions: Echinochloa crus-galli, pre-emergence, Bygr, 11.2 kg/ha, 10-14 days, read-out: herbicidal rating (% inhibition)
Method in brief: (§1)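 Percent inhibition per species, scored on a rating scale, after pre-emergent soil incorporation: test compound in acetone or water carrier mixed into cover soil, layered over seeded topsoil or vegetative propagules.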

[2] = system: Morningglory; experiment: Pre-emergent herbicidal activity (Table A); conditions: Ipomoea, pre-emergence, Mogl, 11.2 kg/ha, 10-14 days, read-out: herbicidal rating (% inhibition)
Method in brief: as §1

[3] = system: Cocklebur; experiment: Pre-emergent herbicidal activity (Table A); conditions: Xanthium strumarium, pre-emergence, Cobu, 11.2 kg/ha, 10-14 days, read-out: herbicidal rating (% inhibition)
Method in brief: as §1

[4] = system: Yellow Nutsedge; experiment: Pre-emergent herbicidal activity (Table A); conditions: Cyperus, pre-emergence, Yens, 11.2 kg/ha, 10-14 days, read-out: herbicidal rating (% inhibition)
Method in brief: as §1

[5] = system: Velvetleaf; experiment: Pre-emergent herbicidal activity (Table A); conditions: Abutilon theophrasti, pre-emergence, Vele, 11.2 kg/ha, 10-14 days, read-out: herbicidal rating (% inhibition)
Method in brief: as §1

[6] = system: Downy Brome; experiment: Pre-emergent herbicidal activity (Table A); conditions: Bromus tectorum, pre-emergence, Dobr, 11.2 kg/ha, 10-14 days, read-out: herbicidal rating (% inhibition)
Method in brief: as §1

[7] = system: Lacg; experiment: plant injury after spraying emerged plants (Table D); design: scale not given here
From the text: (§2) Topsoil (silt loam) is sieved through a screen having 1.27 cm openings. […] This mixture is steam sterilized and then placed in aluminum pans 6.985 cm deep having ten holes in the bottom each 0.635 cm in diameter. The soil mixture is compacted to a depth of 1.27 cm. from the top of the pan. A predetermined number of seeds of each of several dicotyledonous and monocotyledonous annual plant species and/or vegetative propagules for the perennial plant species are placed on the soil and pressed into the soil surface. The seeds and/or vegetative propagules are covered with 1.27 cm of a mixture of 50% topsoil and 50% of a mixture of Canadian sphagnum peat moss, vermiculite and a wetting agent. The pans are then placed on a capillary mat on a greenhouse bench and subirrigated as needed.
(§3) In the following Table D the legends used to identify the plant species are the same as those used in the preceding Table B.

[8] = system: Whez; experiment: as above; design: scale not given here
From the text: as §2, §3

[9] = system: Corn; experiment: as above; design: scale not given here
From the text: as §2, §3

[10] = system: Sobe; experiment: as above; design: scale not given here
From the text: as §2, §3

[11] = system: Bygr; experiment: as above; design: scale not given here
From the text: as §2, §3

[12] = system: Prmi; experiment: as above; design: scale not given here
From the text: as §2, §3

[13] = system: Mogl; experiment: as above; design: scale not given here
From the text: as §2, §3

[14] = system: Cobu; experiment: as above; design: scale not given here
From the text: as §2, §3

[15] = system: Grft; experiment: as above; design: scale not given here
From the text: as §2, §3

[16] = system: Rice; experiment: as above; design: scale not given here
From the text: as §2, §3

[17] = system: Grso; experiment: as above; design: scale not given here
From the text: as §2, §3

COC(=O)c1c(O)nc(C(F)(F)F)c(C(=O)OC)c1CC(C)C [Compound 1, 3,5-pyridinedicarboxylic acid, 2-hydroxy-4-(2-methylpropyl)-6-(trifluoromethyl)-, dimethyl ester]
inhibition at 11200 g/ha [1]: 0 to 24% | inhibition at 11200 g/ha [2]: 0 to 24% | inhibition at 11200 g/ha [3]: 0 to 24% | inhibition at 11200 g/ha [4]: 0 to 24% | inhibition at 11200 g/ha [5]: 0 to 24% | inhibition at 11200 g/ha [6]: 0 to 24% | plant injury rating, Lacg ([7]; 0.0701 kg/ha): 3 | plant injury rating, Lacg ([7]; 1.1210 kg/ha): 3 | plant injury rating, Lacg ([7]; 5.3808 kg/ha): 3 | plant injury rating, Whez ([8]; 0.0701 kg/ha): 0 | plant injury rating, Whez ([8]; 0.2803 kg/ha): 0 | plant injury rating, Whez ([8]; 1.1210 kg/ha): 0 | plant injury rating, Whez ([8]; 5.3808 kg/ha): 0 | plant injury rating, Corn ([9]; 0.0701 kg/ha): 0 | plant injury rating, Corn ([9]; 0.2803 kg/ha): 0 | plant injury rating, Corn ([9]; 1.1210 kg/ha): 2 | plant injury rating, Corn ([9]; 5.3808 kg/ha): 2 | plant injury rating, Sobe ([10]; 0.2803 kg/ha): 2 | plant injury rating, Sobe ([10]; 1.1210 kg/ha): 1 | plant injury rating, Sobe ([10]; 5.3808 kg/ha): 3 | plant injury rating, Bygr ([11]; 0.0701 kg/ha): 0 | plant injury rating, Bygr ([11]; 1.1210 kg/ha): 1 | plant injury rating, Prmi ([12]; 0.0701 kg/ha): 0 | plant injury rating, Prmi ([12]; 0.2803 kg/ha): 0 | plant injury rating, Prmi ([12]; 1.1210 kg/ha): 2 | plant injury rating, Prmi ([12]; 5.3808 kg/ha): 3 | plant injury rating, Mogl ([13]; 1.1210 kg/ha): 1 | plant injury rating, Cobu ([14]; 0.0701 kg/ha): 0 | plant injury rating, Cobu ([14]; 0.2803 kg/ha): 0 | plant injury rating, Cobu ([14]; 1.1210 kg/ha): 0 | plant injury rating, Cobu ([14]; 5.3808 kg/ha): 4 | plant injury rating, Grft ([15]; 0.0701 kg/ha): 0 | plant injury rating, Grft ([15]; 0.2803 kg/ha): 0 | plant injury rating, Rice ([16]; 0.0701 kg/ha): 0 | plant injury rating, Rice ([16]; 0.2803 kg/ha): 0 | plant injury rating, Rice ([16]; 1.1210 kg/ha): 0 | plant injury rating, Grso ([17]; 0.0701 kg/ha): 0 | plant injury rating, Grso ([17]; 0.2803 kg/ha): 0 | plant injury rating, Grso ([17]; 1.1210 kg/ha): 0

COC(=O)c1c(OC)nc(C(F)(F)F)c(C2=NCCCS2)c1CC(C)C [Compound 98, 3-pyridinecarboxylic acid, 5-(5,6-dihydro-4H-1,3-thiazin-2-yl)-2-methoxy-4-(2-methylpropyl)-6-(trifluoromethyl)-, methyl ester]
inhibition at 11200 g/ha [1]: 75 to 100% | inhibition at 11200 g/ha [2]: 75 to 100% | inhibition at 11200 g/ha [3]: 0 to 24% | inhibition at 11200 g/ha [4]: 0 to 24% | inhibition at 11200 g/ha [5]: 75 to 100% | inhibition at 11200 g/ha [6]: 75 to 100% | plant injury rating, Lacg ([7]; 0.0701 kg/ha): 0 | plant injury rating, Lacg ([7]; 0.2803 kg/ha): 2 | plant injury rating, Lacg ([7]; 1.1210 kg/ha): 3 | plant injury rating, Lacg ([7]; 5.6050 kg/ha): 3 | plant injury rating, Whez ([8]; 0.0701 kg/ha): 0 | plant injury rating, Whez ([8]; 0.2803 kg/ha): 0 | plant injury rating, Whez ([8]; 1.1210 kg/ha): 0 | plant injury rating, Whez ([8]; 5.6050 kg/ha): 0 | plant injury rating, Corn ([9]; 0.0701 kg/ha): 0 | plant injury rating, Corn ([9]; 0.2803 kg/ha): 0 | plant injury rating, Corn ([9]; 1.1210 kg/ha): 0 | plant injury rating, Corn ([9]; 5.6050 kg/ha): 2 | plant injury rating, Sobe ([10]; 0.0701 kg/ha): 0 | plant injury rating, Sobe ([10]; 0.2803 kg/ha): 0 | plant injury rating, Sobe ([10]; 1.1210 kg/ha): 0 | plant injury rating, Sobe ([10]; 5.6050 kg/ha): 2 | plant injury rating, Bygr ([11]; 0.0701 kg/ha): 0 | plant injury rating, Bygr ([11]; 0.2803 kg/ha): 0 | plant injury rating, Bygr ([11]; 1.1210 kg/ha): 0 | plant injury rating, Bygr ([11]; 5.6050 kg/ha): 0 | plant injury rating, Prmi ([12]; 0.0701 kg/ha): 0 | plant injury rating, Prmi ([12]; 0.2803 kg/ha): 1 | plant injury rating, Prmi ([12]; 5.6050 kg/ha): 2 | plant injury rating, Mogl ([13]; 0.0701 kg/ha): 0 | plant injury rating, Mogl ([13]; 0.2803 kg/ha): 0 | plant injury rating, Mogl ([13]; 1.1210 kg/ha): 1 | plant injury rating, Mogl ([13]; 5.6050 kg/ha): 2 | plant injury rating, Cobu ([14]; 0.0701 kg/ha): 0 | plant injury rating, Cobu ([14]; 0.2803 kg/ha): 1 | plant injury rating, Cobu ([14]; 1.1210 kg/ha): 1 | plant injury rating, Cobu ([14]; 5.6050 kg/ha): 2 | plant injury rating, Grft ([15]; 0.0701 kg/ha): 0 | plant injury rating, Grft ([15]; 0.2803 kg/ha): 0 | plant injury rating, Grft ([15]; 1.1210 kg/ha): 0 | plant injury rating, Grft ([15]; 5.6050 kg/ha): 1 | plant injury rating, Rice ([16]; 0.0701 kg/ha): 0 | plant injury rating, Rice ([16]; 0.2803 kg/ha): 0 | plant injury rating, Rice ([16]; 1.1210 kg/ha): 0 | plant injury rating, Rice ([16]; 5.6050 kg/ha): 0 | plant injury rating, Grso ([17]; 0.0701 kg/ha): 0 | plant injury rating, Grso ([17]; 0.2803 kg/ha): 0 | plant injury rating, Grso ([17]; 1.1210 kg/ha): 0 | plant injury rating, Grso ([17]; 5.6050 kg/ha): 1
